Data as given in article PMC5893132, “Selective inhibition of histamine-evoked Ca^2+ signals by compartmentalized cAMP in human bronchial airway smooth muscle cells” (Cell Calcium, 2018).

Assays:
Type in all cases: cell-based, human
[1] = test system: histamine-evoked Ca^2+ signals in hBASMCs; experiment: Histamine-evoked Ca2+ signals in populations of fluo-4-loaded hBASMCs; settings: for effect on the sensitivity to histamine: trans Ned-19 1 μM or ryanodine 50 μM, 5 min, HBSS; for effect on histamine-evoked Ca2+ signals: pre-treatment: 8-Br-cGMP, IBMX 20 min, forskolin 10 μM, NKH477 10 μM, butaprost 10 μM, TCS2510 1 μM 5 min
Experimental: (§1) Two methods were used to measure [Ca^2+]i in populations of hBASMCs. For measurements using a FlexStation III plate-reader (Molecular Devices, Sunnyvale, CA, USA), hBASMCs were seeded into 96-well plates (10^4 cells per well). After about 4 days, when the cells were confluent, the medium was replaced with SMGM-2 without serum or growth factor supplements, and the cells were used after a further 24 h. This period in serum-free medium increased by about 2-fold the amplitude of the increases in [Ca^2+]i evoked by histamine (results not shown). Cells were washed with HEPES-buffered saline (HBS: 135 mM NaCl, 5.9 mM KCl, 1.2 mM MgCl2, 1.5 mM CaCl2, 11.6 mM HEPES, 11.5 mM D-glucose, pH 7.3), and loaded with fluo-4 by incubation with fluo-4-AM (2 μM) in HBS (100 μL per well) containing pluronic F127 (0.02%, v/v) and probenecid (2.5 mM). After 1 h at 20 °C, the medium was replaced with HBS (100 μL per well) containing probenecid (2.5 mM). After a further incubation at 20 °C for 1 h, the medium was replaced with HBS (60–80 μL per well) or nominally Ca^2+-free HBS, and the cells were used immediately for experiments at 20 °C. In some experiments, BAPTA (2.5 mM) was added to HBS during the recording; this reduced the free [Ca^2+] of the HBS to ∼120 nM without affecting the pH. Drug additions (20 μL at 4 or 5 times the final concentration) were added automatically. Fluorescence from fluo-4 (excitation 485 nm, emission 525 nm) was recorded at 1.44-s intervals using Softmax Pro 5.4 (Molecular Devices). Fluorescence was calibrated to [Ca^2+]i from: [Ca^2+]i=KDCa×(F−Fmin/Fmax−F) where, KDCa is the equilibrium dissociation constant of fluo-4 for Ca^2+ (345 nM), F is the recorded fluorescence, and Fmin and Fmax are the fluorescence values recorded after addition of triton-X-100 (0.1%, v/v) with either BAPTA (10 mM, Fmin) or CaCl2 (10 mM, Fmax). Although treatment with triton-X-100 releases fluo-4 from cells into the medium, the fluo-4 fluorescence is captured with the same efficiency whether it is trapped within cells or dispersed within the small volume of the wells (unpublished observations). Fmax was determined for each well at the end of an experiment, and the average value was used for each column of 8 wells. Fmin was determined from parallel wells on each plate.
For measurements of [Ca^2+]i using an FDSS 7000 FLIPR (Hamamatsu), hBASMCs were seeded into 384-well plates (8000 cells per well) in 20 μL of SMGM-2 containing 5% serum. After 24 h, the medium was replaced with 15 μL of serum-free SMGM-2, and after a further 6 h the cells were loaded with Ca^2+ indicator by addition of FLIPR calcium 4 assay kit (Molecular Devices) supplemented with probenecid (2.5 mM). The exact composition of this ‘no-wash’ indicator kit is not disclosed by the manufacturer, but it contains fluo-4-AM and components that reduce background fluorescence. The manufacture’s stock solution was diluted 10-fold into HBSS containing BSA (0.1%, w/v) and HEPES (20 mM); 5 μL of this solution was then added to each well (containing 15 μL of serum-free SMGM-2). After 2 h at 37 °C in humidified air containing 5% CO2, the plate was used for experiments at 20 °C. Most additions (5 μL) were prepared in HBSS supplemented with HEPES (20 mM) and BSA (0.1%, w/v). For more prolonged incubations, drugs were diluted in the initial loading medium (to avoid changes in dye-loading during the ‘no wash’ protocol). Fluorescence signals (excitation at 480 nm, emission at 540 nm) were calibrated to [Ca^2+]i after measurement of Fmin and Fmax uniquely for each well, using a KDCa = 345 nM.
All concentration-effect relationships were determined by addition of different drug concentrations to individual wells in the same multi-well plate, rather than by sequential additions to the same well. […]

[2] = test system: Ca^2+ signals evoked by histamine, bradykinin or carbachol in hBASMCs; experiment: GPCR-evoked Ca2+ signals (histamine, bradykinin or carbachol, stated together) in hBASMCs; settings: HBSS; for whether the inhibitor substantially affected the Ca2+ signals evoked by histamine, bradykinin or carbachol: ryanodine 50 μM or trans Ned-19 1 μM, 5 min
Experimental: as §1, with “This period in serum-free medium increased by about 2-fold the amplitude of the increases in [Ca^2+]i evoked by histamine (results not shown).” left out, “In some experiments, BAPTA (2.5 mM) was added to HBS during the recording; this reduced the free [Ca^2+] of the HBS to ∼120 nM without affecting the pH.” left out, “Although treatment with triton-X-100 releases fluo-4 from cells into the medium, the fluo-4 fluorescence is captured with the same efficiency whether it is trapped within cells or dispersed within the small volume of the wells (unpublished observations).” left out
(§2) For measurements of [Ca^2+]i using an FDSS 7000 FLIPR (Hamamatsu), hBASMCs were seeded into 384-well plates (8000 cells per well) in 20 μL of SMGM-2 containing 5% serum. […] The exact composition of this ‘no-wash’ indicator kit is not disclosed by the manufacturer, but it contains fluo-4-AM and components that reduce background fluorescence. […]

[3] = test system: intracellular cAMP in hBASMCs; experiment: Intracellular cAMP in hBASMCs by mass spectrometry; settings: IBMX 20 min; MS
Experimental: These methods were modified from. Confluent cultures of hBASMCs in 48-well plates were serum-deprived (6–24 h) and the medium was then replaced with HBSS (300 μL) containing HEPES (5 mM) and BSA (0.1%, w/v). Cells were stimulated at 20 °C, and reactions were terminated by aspiration of the medium and addition of acetonitrile (170 μL) containing dibutyryl cAMP (0.5 μM, to provide an internal standard). The plates were centrifuged (1500 xg, 15 min, 4 °C), supernatants (158 μL) were transferred to a 96-well, glass-coated plate (Thermo Scientific), and aqueous NH4HCO3 (pH 9.4, 93 μL) was added to each sample. After mixing and centrifugation (1500 xg, 15 min, 4 °C), samples were stored at 4 °C before analysis. Samples were analyzed by liquid chromatography tandem mass spectrometry (LC–MS/MS) using a Waters Acquity UPLC and a Sciex 5500 mass spectrometer equipped with an electrospray ionization source. ATP, ADP, AMP and cAMP were analyzed using a ZIC-pHILIC polymeric column (5-μm particle size, […]) maintained at 35 °C. Calibration standards were prepared in the lysis medium containing the internal standard, dibutyryl cAMP (0.5 μM). […] Samples were detected using multiple reaction monitoring in negative ion mode using the following parent-to-daughter mass transitions: cAMP m/z 327.9 → 133.9 (DP −100 V, CE −33 eV), AMP m/z 345.9 → 134.0 (DP −100 V, CE −50 eV), ADP m/z 426.0 → 134.0 (DP −100 V, CE −30 eV), ATP m/z 505.9 → 408.0 (DP −100 V, CE −35 eV), and internal standard dibutyryl cAMP m/z 468.1 → 175.0 (DP −100 V, CE −35 eV). Concentration-effect relationships were fitted to logistic equations for each experiment using GraphPad Prism (version 5, GraphPad Software, La Jolla, CA, USA), from which half-maximally effective drug concentrations (EC50), maximal responses, and Hill slopes were determined. For statistical analyses, maximal responses, Hill slopes and pEC50 (-logEC50) or pIC50 (-log of the half-maximal inhibitory concentration, IC50) values determined for individual experiments were pooled for statistical analysis. […]

[4] = test system: carbachol-evoked Ca^2+ signals in hBASMCs; experiment: Carbachol-evoked Ca2+ signals in populations of fluo-4-loaded hBASMCs
Experimental: as §1, with “This period in serum-free medium increased by about 2-fold the amplitude of the increases in [Ca^2+]i evoked by histamine (results not shown).” left out, “In some experiments, BAPTA (2.5 mM) was added to HBS during the recording; this reduced the free [Ca^2+] of the HBS to ∼120 nM without affecting the pH.” left out, “Although treatment with triton-X-100 releases fluo-4 from cells into the medium, the fluo-4 fluorescence is captured with the same efficiency whether it is trapped within cells or dispersed within the small volume of the wells (unpublished observations).” left out
as §2

[5] = test system: bradykinin-evoked Ca^2+ signals in hBASMCs; experiment: Bradykinin-evoked Ca2+ signals in populations of fluo-4-loaded hBASMCs
Experimental: as §1, with “This period in serum-free medium increased by about 2-fold the amplitude of the increases in [Ca^2+]i evoked by histamine (results not shown).” left out, “In some experiments, BAPTA (2.5 mM) was added to HBS during the recording; this reduced the free [Ca^2+] of the HBS to ∼120 nM without affecting the pH.” left out, “Although treatment with triton-X-100 releases fluo-4 from cells into the medium, the fluo-4 fluorescence is captured with the same efficiency whether it is trapped within cells or dispersed within the small volume of the wells (unpublished observations).” left out
as §2

[6] = test system: intracellular Ca^2+ stores of hBASMCs; experiment: Ca2+ content of intracellular stores, by ionomycin in Ca2+-free HBS; settings: isoproterenol, forskolin 10 μM, 5 min, 2-APB 5 min, higher concentrations needed than for inhibition of GPCR-evoked signals
L-type Ca^2+ channels = experiment: Depolarization (K+)-evoked increase in [Ca2+]i in single fura-2-loaded hBASMCs; settings: nimodipine 10 μM, 5 min; extracellular Na+ replaced with K+ 140 mM; all 44 cells, mean ± SD, single experiment; 50 ± 11 nM in absence
[7] = test system: LPA-evoked Ca^2+ signals in hBASMCs; experiment: LPA-evoked Ca2+ signals in populations of fluo-4-loaded hBASMCs; settings: PTX 100 ng·mL^−1, 24 h
Experimental: Two methods were used to measure [Ca^2+]i in populations of hBASMCs. For measurements using a FlexStation III plate-reader (Molecular Devices, Sunnyvale, CA, USA), hBASMCs were seeded into 96-well plates (10^4 cells per well). After about 4 days, when the cells were confluent, the medium was replaced with SMGM-2 without serum or growth factor supplements, and the cells were used after a further 24 h. […] Cells were washed with HEPES-buffered saline (HBS: 135 mM NaCl, 5.9 mM KCl, 1.2 mM MgCl2, 1.5 mM CaCl2, 11.6 mM HEPES, 11.5 mM D-glucose, pH 7.3), and loaded with fluo-4 by incubation with fluo-4-AM (2 μM) in HBS (100 μL per well) containing pluronic F127 (0.02%, v/v) and probenecid (2.5 mM). […] Fluorescence from fluo-4 (excitation 485 nm, emission 525 nm) was recorded at 1.44-s intervals using Softmax Pro 5.4 (Molecular Devices). Fluorescence was calibrated to [Ca^2+]i from: [Ca^2+]i=KDCa×(F−Fmin/Fmax−F) where, KDCa is the equilibrium dissociation constant of fluo-4 for Ca^2+ (345 nM), F is the recorded fluorescence, and Fmin and Fmax are the fluorescence values recorded after addition of triton-X-100 (0.1%, v/v) with either BAPTA (10 mM, Fmin) or CaCl2 (10 mM, Fmax). […] Fmax was determined for each well at the end of an experiment, and the average value was used for each column of 8 wells. Fmin was determined from parallel wells on each plate. […]

With `COc1ccc([C@H]2N[C@H](C(=O)O)Cc3c2[nH]c2ccccc32)cc1CN1CCN(c2ccccc2F)CC1` (relative stereo) [trans Ned-19, trans-Ned-19] the “effect on the sensitivity to histamine” value [1] was “slightly reduced” and the “whether the inhibitor substantially affected the Ca2+ signals evoked by histamine, bradykinin or carbachol” value [2] was “Neither”.

`CC(C)Cn1c(=O)n(C)c(=O)c2[nH]cnc21` [IBMX, 3-isobutyl-1-methylxanthine] was tested, and the “effect on histamine-evoked Ca2+ signals” value [1] was “an inhibition of histamine-evoked Ca^2+ signals” and the “effect on intracellular cAMP” value [3] was “an accumulation of intracellular cAMP”.

`CCCCCCCCCCCCCCCCCCOCC(COP(=O)([O-])OCC[N+](C)(C)C)OC` (centres unmarked) [edelfosine] showed an IC50 ([1]; Homo sapiens, histamine 10 μM, pre-incubation 30 min, n = 3, read-out: pIC50 for inhibition of the Ca2+ signals evoked by histamine (converted)) of 22.9 µM, an IC50 ([4]; Homo sapiens, carbachol 10 μM, pre-incubation 30 min, n = 3, read-out: pIC50 for inhibition of the Ca2+ signals evoked by carbachol (converted)) of 39.8 µM and an IC50 ([5]; Homo sapiens, bradykinin 1 nM, pre-incubation 30 min, n = 3, read-out: pIC50 for inhibition of the Ca2+ signals evoked by bradykinin (converted)) of 33.9 µM.

For `C=C[C@@]1(C)CC(=O)[C@]2(O)[C@@]3(C)[C@@H](O)CCC(C)(C)[C@@H]3[C@H](O)[C@H](OC(C)=O)[C@@]2(C)O1` [forskolin], the “effect on histamine-evoked Ca2+ signals” value [1] was “mimicked the effect of isoproterenol” and the “effect on the Ca2+ content of the intracellular stores” value [6] was “Neither isoproterenol nor forskolin (10 μM, 5 min) affected”.

For `COCCOC(=O)C1=C(C)NC(C)=C(C(=O)OC(C)C)C1c1cccc([N+](=O)[O-])c1` (centres unmarked) [nimodipine], the “effect on the increases in [Ca2+]i evoked by histamine, bradykinin and carbachol” value ([2]; added 5 min before stimulus, nimodipine 10 μM, 2-APB indicated concentrations) was “unaffected” and the “peak increase in [Ca2+]i on depolarization in presence of inhibitor” value (L-type Ca^2+ channels) was 20 ± 14 nM.

In the case of `CC(C)[C@@]1(O)[C@@H](OC(=O)c2ccc[nH]2)[C@@]2(O)[C@@]3(C)C[C@]4(O)O[C@@]5([C@H](O)[C@@H](C)CC[C@]35O)[C@@]2(O)[C@@]14C` [ryanodine], the “effect on the sensitivity to histamine” value [1] is reported as “slightly reduced” and the “whether the inhibitor substantially affected the Ca2+ signals evoked by histamine, bradykinin or carbachol” value [2] is reported as “Neither”.

With Pertussis toxin [PTX] the “effect of pre-treatment on the Ca2+ signals evoked by histamine” value ([1]; PTX 100 ng·mL^−1, 24 h) was “had no effect”, the “effect of pre-treatment on maximal amplitude of and sensitivity of the Ca2+ signals evoked by carbachol” value ([4]; PTX 100 ng·mL^−1, 24 h) was “significantly reduced” and the “effect of pre-treatment on the Ca2+ signals evoked by bradykinin” value ([5]; PTX 100 ng·mL^−1, 24 h) was “had no effect”. For the same molecule, the “effect of pre-treatment on maximal amplitude of and sensitivity of the Ca2+ signals evoked by LPA” value [7] was “significantly reduced”.
